Counter-ions that a name gives are not always drawn.
What was measured:
[1] = PK protocol, intravenous administration; format: in vivo, male Sprague Dawley rats; settings: male, Sprague Dawley, rat, plasma, dose (mg/kg); for Vd: read-out: Vdss
Description: (§1) Pharmacokinetic parameters were determined in male Sprague Dawley rats (Charles River, UK, 250-350 g; or Vital River Laboratory Animal Technology Co Ltd, Beijing, China, 7-9 weeks old). Animals were individually housed during the study and maintained under a 12 h light/dark cycle. Animals had free access to food and water except that some orally dosed animals were food deprived overnight prior to the study.
(§2) For intravenous administration, compounds were formulated as a solution in water or […] in 2 mL/kg dosing volume and administered via tail vein. For oral administration, compounds were formulated as a solution in water or DMSO:water [10:90] in 5 mL/kg dosing volume and administered orally.
(§3) Serial blood samples (about 120-300 μL) were taken from each animal at each of 8 time-points post dose (0.083, 0.25, 0.5, 1, 2, 4, 8 and 24 h) or at each of 12 time-points post dose (0.03, 0.1, 0.17, 0.25, 0.5, 1, 2, 4, 6, 8, 12 and 24 h) or pre-dose and at each of 9 time-points post dose (0.25, 0.5, 1, 2, 4, 6, 8, 12 and 24 h). Samples were held on ice for no longer than 30 minutes before centrifugation (10,000 rpm (8,385 g) for 3 minutes; or 5,696 rpm (3,0009 for 15 minutes) for plasma generation. Plasma was frozen on dry ice prior to boanalysis. PK parameters were generated from LC-MS/MS data using Dotmatics or Phoenix WinNonlin 6.3 software.

[2] = biological target: T1, NLRP3 (Homo sapiens, UniProt Q96P20); assay: Human whole blood IL1β release assay (LPS + nigericin, AlphaLisa IL-1β); format: cell-based; design: Human whole blood in Li-heparin tubes was obtained from healthy donors from a volunteer donor panel; from tissue; host or cells: human whole blood from healthy donors; settings: NLRP3 inhibitory activity, 1 μg/ml LPS, 10 μM nigericin, IL-1β release, read-out: HWB IC50
Procedure, shortened: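 Donor human whole blood (Li-heparin) was primed with 1 μg/mL LPS while incubated with compound (8-point half-log, 10 μM top, 0.1% DMSO) for 3 h at 37° C., then stimulated with 10 μM nigericin for 1 h. Supernatant IL-1β measured by AlphaLISA; IC50 from 4-parameter nonlinear fit.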

[3] = biological target: T1, NLRP3; assay: THP-1 cells pyroptosis assay (LPS + nigericin, resazurin readout); format: cell-based; design: Seed THP-1 cells (25,000 cells/well) containing 1.0 μg/ml LPS in 40 μl of RPMI medium; host or cells: THP-1 cells; settings: NLRP3 inhibitory activity, 1.0 μg/ml LPS, 5 μM nigericin
Procedure, shortened: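 LPS-primed (1 μg/ml) THP-1 cells, 25,000/well in serum-free RPMI, given compound (8-point half-log, 10 μM top; 0.1% DMSO) for 3 h at 37 °C, then nigericin 5 μM for 1 h. Viability by resazurin (100 μM, 1-2 h), Ex 560/Em 590 nm; IC50 from 4-parameter variable-slope fit.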

[4] = PK protocol, oral administration; format: in vivo, male Sprague Dawley rats; settings: male, Sprague Dawley, plasma, rat, dose (mg/kg); for AUC / CL/F / Cmax / Tmax / half-life: po
Description: as §1, §2, §3

T1 sequence (Q96P20 whole entry): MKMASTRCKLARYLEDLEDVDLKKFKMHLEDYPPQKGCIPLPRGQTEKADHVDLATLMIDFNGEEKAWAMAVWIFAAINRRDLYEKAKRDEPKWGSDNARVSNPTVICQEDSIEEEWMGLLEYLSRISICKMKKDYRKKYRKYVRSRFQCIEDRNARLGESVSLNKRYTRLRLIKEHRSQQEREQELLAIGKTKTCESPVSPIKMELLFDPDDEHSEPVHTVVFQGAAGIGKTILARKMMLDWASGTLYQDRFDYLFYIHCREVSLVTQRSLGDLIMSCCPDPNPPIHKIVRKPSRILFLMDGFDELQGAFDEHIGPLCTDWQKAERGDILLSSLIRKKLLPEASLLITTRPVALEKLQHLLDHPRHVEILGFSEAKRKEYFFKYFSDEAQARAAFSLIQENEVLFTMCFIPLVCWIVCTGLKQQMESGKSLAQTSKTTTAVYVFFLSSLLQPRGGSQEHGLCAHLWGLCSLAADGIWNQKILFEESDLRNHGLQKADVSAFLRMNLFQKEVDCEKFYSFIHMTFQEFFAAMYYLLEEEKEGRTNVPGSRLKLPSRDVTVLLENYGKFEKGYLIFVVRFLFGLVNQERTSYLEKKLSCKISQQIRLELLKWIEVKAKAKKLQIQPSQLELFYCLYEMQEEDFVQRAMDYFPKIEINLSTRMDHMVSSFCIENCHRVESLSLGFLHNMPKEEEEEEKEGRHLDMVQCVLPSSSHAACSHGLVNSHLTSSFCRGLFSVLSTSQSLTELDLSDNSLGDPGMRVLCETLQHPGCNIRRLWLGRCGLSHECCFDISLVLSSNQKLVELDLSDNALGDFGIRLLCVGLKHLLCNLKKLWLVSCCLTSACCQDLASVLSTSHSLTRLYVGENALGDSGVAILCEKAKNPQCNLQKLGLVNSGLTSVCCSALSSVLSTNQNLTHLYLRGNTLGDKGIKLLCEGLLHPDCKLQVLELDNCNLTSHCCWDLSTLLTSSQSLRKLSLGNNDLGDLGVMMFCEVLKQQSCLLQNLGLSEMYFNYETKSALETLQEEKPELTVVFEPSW

| SMILES | AUC [1] [ng·h/mL] | clearance [1] [mL/min/kg] | half-life [1] [h] | Vd [1] [L/kg] | IC50 [2] [µM] | IC50 [3] [µM] | bioavailability [4] [%] | AUC [4] [ng·h/mL] | CL/F [4] [mL/min/kg] | Cmax [4] [ng/mL] | Tmax [4] [h] | half-life [4] [h] |
| --- | --- | --- | --- | --- | --- | --- | --- | --- | --- | --- | --- | --- |
| CC(C)c1cc(Cl)cc(C(C)C)c1NC(=O)NS(=O)(=O)c1cc(CN(C)C)n(C)n1 [Example 93, N-((4-Chloro-2,6-diisopropylphenyl)carbamoyl)-5-((dimethylamino)methyl)-1-methyl-1H-pyrazole-3-sulfonamide, Sodium Salt] | 4230 | 10.8 | 3.3 | 1.71 | 0.8 to 1.6 | 0.04 to 0.16 | 31.3 | 3310 | 18 | 1100 | 0.36 |  |
| CN(C)Cc1cc(S(=O)(=O)NC(=O)Nc2c3c(cc4c2CCC4)CCC3)nn1C1CC1 [Example 7, 1-Cyclopropyl-5-((dimethylamino)methyl)-N-((1,2,3,5,6,7-hexahydro-s-indacen-4-yl)carbamoyl)-1H-pyrazole-3-sulfonamide] | 3480 | 4.9 | 1.2 | 0.36 | 0.4 to 0.8 | < 0.04 | 204 | 21200 | 2.4 | 6690 | 1 | 2.2 |
| CNCc1cc(S(=O)(=O)NC(=O)Nc2c3c(cc4c2CCC4)CCC3)nn1C(C)C [Example 50, N-((1,2,3,5,6,7-Hexahydro-s-indacen-4-yl)carbamoyl)-1-isopropyl-5-((methylamino)methyl)-1H-pyrazole-3-sulfonamide] | 11400 | 1.5 | 3.5 | 0.39 | 0.4 to 0.8 | 0.04 to 0.16 | 84 | 19100 | 1.8 | 2410 | 1.3 | 3.3 |
| CC(C)c1cc(F)cc(C(C)C)c1NC(=O)NS(=O)(=O)c1cc(CN2CCC2)n(C)n1 [Example 88, 5-(Azetidin-1-ylmethyl)-N-((4-fluoro-2,6-diisopropylphenyl)carbamoyl)-1-methyl-1H-pyrazole-3-sulfonamide, Sodium Salt] | 1500 | 11.2 | 4.3 | 1.64 | < 0.4 | 0.16 to 0.64 |  |  |  |  |  |  |

The remaining lines, values ahead:

| AUC [1] [ng·h/mL] | clearance [1] [mL/min/kg] | half-life [1] [h] | Vd [1] [L/kg] | IC50 [2] [µM] | IC50 [3] [µM] | bioavailability [4] [%] | AUC [4] [ng·h/mL] | CL/F [4] [mL/min/kg] | Cmax [4] [ng/mL] | Tmax [4] [h] | half-life [4] [h] | SMILES |
| --- | --- | --- | --- | --- | --- | --- | --- | --- | --- | --- | --- | --- |
| 4900 | 5.8 | 3.2 | 0.66 | < 0.4 | 0.04 to 0.16 | 45.6 | 5650 | 12.3 | 2340 | 0.5 | 2.9 | CC(c1cc(S(=O)(=O)NC(=O)Nc2c3c(cc4c2CCC4)CCC3)nn1C)N1CCC1 (stereo not drawn) [Example 76, 5-(1-(Azetidin-1-yl)ethyl)-N-((1,2,3,5,6,7-hexahydro-s-indacen-4-yl)carbamoyl)-1-methyl-1H-pyrazole-3-sulfonamide] |
|  |  |  |  | < 0.4 | < 0.04 |  | 17000 | 4.2 | 7460 | 0.38 | 1.2 | CC(c1cc(S(=O)(=O)NC(=O)Nc2c3c(cc4c2CCC4)CCC3)nn1C)N(C)C (single isomer, unassigned; enantiomer 1) [Example 69, 5-(1-(Dimethylamino)ethyl)-N-((1,2,3,5,6,7-hexahydro-s-indacen-4-yl)carbamoyl)-1-methyl-1H-pyrazole-3-sulfonamide, Enantiomer 1] |
| 4700 | 3.8 | 1.1 | 0.27 | < 0.4 | < 0.04 | 91.6 | 12900 | 4.1 | 7180 | 0.58 | 1.5 | CN(C)Cc1cc(S(=O)(=O)NC(=O)Nc2c3c(cc4c2CCC4)CCC3)nn1C [Example 94, 5-((Dimethylamino)methyl)-N-((1,2,3,5,6,7-hexahydro-s-indacen-4-yl)carbamoyl)-1-methyl-1H-pyrazole-3-sulfonamide] |

From US11542255B2, “Sulfonylureas and sulfonylthioureas as NLRP3 inhibitors” (Inflazome Limited, priority 2017, dated 2023)
